Experimental data reported in patent publication US20110300129A1, “SYSTEMS AND METHODS FOR ENHANCING VACCINE EFFICACY” (UNIVERSITY OF ROCHESTER, priority 2008, published 2011).

Experiments:
purified human B cells = experiment: B cell proliferation, CFSE cell division by flow cytometry; type: cell-based; settings: CpG-activated B cells, 5 days; for cell division compared to vehicle control: Rosiglitazone 0.5 μM, 15d-PGJ2 0.2 μM
Experimental: Proliferation: For cell division, a CellTrace™ CFSE Cell Proliferation Kit (Invitrogen, Carlsbad, Calif.) was used according to the manufacturer's protocol. Briefly, cells were labeled with 0.5 μM CFSE (carboxyfluorescein diacetate succinimidyl ester) for 15 minutes at 37° C., followed by two washes with 1×PBS, and then resuspended in RPMI culture media containing 10% FBS. Cells were then plated at a density of 1×10^5 cells/well in a 96-round bottom plate. Five days later, cells were acquired using a BD Biosciences FACS Calibur flow cytometer and analyzed using FlowJo software (Tree Star, Inc. Ashland, Oreg.).
Five days after activation, cells were analyzed by flow cytometry. […] FIG. 2B illustrates the percent of cell division for three different B cell donors.

[1] = system: purified human B lymphocytes; experiment: Antibody production, IgM and IgG ELISA of B cell supernatants; type: cell-based
Experimental: Antibody Production: Purified human B lymphocytes (5×10^5 cells/ml) were cultured in 96-well round-bottom microtiter plates. […] Pilot experiments were performed to optimize the doses of PPARγ and RXR ligands. […] Supernatants were harvested and the concentrations of IgM and IgG were analyzed using human-specific ELISAs (Bethyl Laboratories).

peripheral blood B cells [2] = experiment: Plasma cell differentiation, CD38/CD27 surface labeling by flow cytometry; type: cell-based, human; settings: for percentage of CD38-expressing naive B cells (CD38highCD27low) / percentage of CD38highCD27high B cells (plasma cells): 9-cis-RA 100 nM; for percentage of CD38highCD27high B cells (plasma cells): Rosiglitazone 0.5 μM, 15d-PGJ2 0.2 μM
Experimental: Intracellular and Surface Labeling: B cells were incubated with mouse anti-human CD19-APC (BD Biosciences), anti-human CD38-PE (BD Biosciences) and/or anti-human CD27-APC (BD Biosciences) in cold PBS with sodium azide (0.02%) and BSA (0.3%) for 20 min at 20° C. COX-2 intracellular staining was performed as described previously (Padilla et al., “Human B Lymphocytes and B Lymphomas Express PPAR-γ and Are Killed by PPAR-γ Agonists,” Clin Immunol 103:22-33 (2002), which is hereby incorporated by reference in its entirety). All samples were acquired on a BD Biosciences FACS Calibur flow cytometer and analyzed using FlowJo software (Tree Star, Inc. Ashland, Oreg.).
Peripheral-blood B lymphocytes include both naive and memory B cell populations. These two B cell subsets can be distinguished based on CD27 expression, which is a marker of memory B cells (Agematsu et al., “CD27: A Memory B-cell Marker,” Immunol Today 21:204-206 (2000), each of which is hereby incorporated by reference in its entirety).

[3] = system: BLIMP-1 expression in B cells; experiment: BLIMP-1 expression in B cells, Western blot densitometry; type: cell-based, human; settings: for BLIMP-1 induction over CpG-treated cells (densitometry): CpG 1 μg/ml plus ligand, 72 hrs
Experimental: (§1) Western Blots: Whole cell extracts were collected using ELB buffer (50 mM HEPES (pH 7), 250 mM NaCl, 0.1% Nonidet P-40, 5 mM EDTA, 10 mM NaF, 0.1 mM Na3VO4, 50 μM ZnCl2, supplemented with 0.1 mM PMSF, 1 mM DTT, and a mixture of protease and phosphatase inhibitors) and total protein was quantified using bicinchoninic acid protein assay (BCA assay kit) (Pierce, Rockford, Ill.). Twenty-five micrograms of protein was electrophoresed on 8-16% Precise™ protein gels (Pierce, Rockford, Ill.) and transferred to polyvinylidene fluoride (PVDF) membrane (Millipore, Billerica, Mass.). The membranes were analyzed for immunoreactivity with the indicated primary antibody, washed and then incubated with an appropriate horseradish peroxidase-conjugated secondary antibody. The membranes were visualized by chemiluminescence using an ECL kit (Pierce, Rockford, Ill.).
Lastly, BLIMP-1 expression was evaluated. BLIMP-1 is a transcription factor important in B cell differentiation (Shaffer et al., “Blimp-1 Orchestrates Plasma Cell Differentiation by Extinguishing the Mature B Cell Gene Expression Program,” Immunity 17:51-62 (2002), which is hereby incorporated by reference in its entirety). […] When B cells were treated with a combination of CpG and PPARγ ligands, there was a further increase in BLIMP-1 expression.

[4] = system: Cox-2 expression in B cells; experiment: Cox-2 intracellular staining of CD19+ B cells, flow cytometry; type: cell-based, human; settings: for percentage of B cells which express Cox-2: CpG 1 μg/ml, Rosiglitazone 0.5 μM, 15d-PGJ2 0.2 μM, 3% untreated
Experimental: Intracellular and Surface Labeling: B cells were incubated with mouse anti-human CD19-APC (BD Biosciences), anti-human CD38-PE (BD Biosciences) and/or anti-human CD27-APC (BD Biosciences) in cold PBS with sodium azide (0.02%) and BSA (0.3%) for 20 min at 20° C. […] All samples were acquired on a BD Biosciences FACS Calibur flow cytometer and analyzed using FlowJo software (Tree Star, Inc. Ashland, Oreg.).
Therefore, the levels of Cox-2 expression were evaluated following PPARγ ligand treatment.

PPARγ = molecular target: T1, PPARγ (Homo sapiens, UniProt P37231); experiment: PPARγ gene reporter analysis (PPRE-luciferase) in transfected B cells; type: cell-based
T1 construct: normal B cells were transfected with a PPARγ luciferase reporter construct; endogenous in cells
T1 sequence (P37231 1-505): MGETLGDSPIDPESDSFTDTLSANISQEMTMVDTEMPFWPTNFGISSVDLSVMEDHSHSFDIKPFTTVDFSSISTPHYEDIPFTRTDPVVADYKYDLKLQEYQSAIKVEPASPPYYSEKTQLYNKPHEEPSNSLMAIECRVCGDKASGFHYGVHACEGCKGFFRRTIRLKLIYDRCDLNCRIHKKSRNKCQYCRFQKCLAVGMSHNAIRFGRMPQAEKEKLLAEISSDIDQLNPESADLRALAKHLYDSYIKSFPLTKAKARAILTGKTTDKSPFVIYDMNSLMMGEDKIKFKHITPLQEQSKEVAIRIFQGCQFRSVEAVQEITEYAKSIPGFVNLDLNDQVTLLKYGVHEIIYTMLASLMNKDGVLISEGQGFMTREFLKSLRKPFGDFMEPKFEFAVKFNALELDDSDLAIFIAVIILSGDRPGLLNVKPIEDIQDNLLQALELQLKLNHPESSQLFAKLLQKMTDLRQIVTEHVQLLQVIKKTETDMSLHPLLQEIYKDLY
Experimental: Twenty-four hours after treatments, luciferase activity was assayed using the Promega Luciferase Assay System (Madison, Wis.). Relative light units (RLU) were determined with a Lumicount Microplate Luminometer (Packard Instrument Co., Meriden, Conn., USA). Relative light units (RLU) were normalized to transfection efficiency that was monitored by cotransfection of GFP expression vector.
To test whether the PPARγ ligand concentrations used here activated PPARγ, normal B cells were transfected with a PPARγ luciferase reporter construct.

human B cells = experiment: B cell viability (7-AAD incorporation, cell size, 3H-thymidine incorporation); type: cell-based; settings: Rosiglitazone 0.5 μM, 15d-PGJ2 0.2 μM; pilot experiments
peripheral blood B cells [5] = settings: Morikawa et al. 2005; cited from earlier work
[6] = system: PPARγ expression in human B cells; experiment: PPARγ expression in activated B cells, Western blot densitometry; type: cell-based; settings: 48 hr; 2 μg/ml anti-IgM Ab, 1 μg/ml CpG; three donors; 'up to'
From the text: B Cell Isolation: Normal B lymphocytes were isolated from a unit of whole blood from healthy donors with ethical permission from the Research Subjects Review Board at the University of Rochester. The isolation of normal B lymphocytes has been previously described (Ryan, et al., “Activated Human B Lymphocytes Express Cyclooxygenase-2 and Cyclooxygenase Inhibitors Attenuate Antibody Production,” J Immunol 174:2619-2626 (2005), which is hereby incorporated by reference in its entirety). Briefly, buffy coats were obtained from whole blood and peripheral blood mononuclear cells (PBMCs) were obtained using Ficoll-Paque (Amersham Biosciences AB) gradient centrifugation. […] B lymphocyte purity was >98% CD19 positive (as determined by flow cytometry, data not shown). […]
as §1, with “Twenty-five micrograms of protein was electrophoresed on 8-16% Precise™ protein gels (Pierce, Rockford, Ill.) and transferred to polyvinylidene fluoride (PVDF) membrane (Millipore, Billerica, Mass.).” left out, “The membranes were visualized by chemiluminescence using an ECL kit (Pierce, Rockford, Ill.).” left out

[7] = system: PPARγ expression in human B cells; experiment: Intracellular PPARγ staining of B cells, flow cytometry; type: cell-based; settings: activated B cells
Experimental: For intracellular staining for PPARγ, untreated or activated B lymphocytes were surface stained with 20 μl of APC anti-human CD19 mAb (BD Biosciences) for 30 minutes in the dark at room temperature (RT). Cells were then fix and permeabilized with BD Cytofix/Cytoperm Fixation/Permeabilization Kit following the manufacturer's instructions. A FITC-Conjugated anti-human PPARγ antibody was used at a 1/100 dilution. An equal amount of IgG1 FITC mAb was used as an isotype control.

[8] = addition of SC-58125 10 μM, 6 days

CC1=C(/C=C/C(C)=C\C=C\C(C)=C\C(=O)O)C(C)(C)CCC1 [9-cis-RA, 9-cis-retinoic acid]
percentage of dividing cells (purified human B cells; ligand alone, 9-cis-RA 100 nM): increased the percentage of dividing cells | IgG production over vehicle control ([1]; CpG-activated cells, 6 days): significantly induced | IgM production over vehicle control ([1]; CpG-activated cells, 6 days): significantly induced | CD38highCD27high cells, fold over vehicle (peripheral blood B cells [2]; CpG 1 μg/ml, 5 days): ~1.7 fold | CD38highCD27low cells, fold vs. CpG plus vehicle (peripheral blood B cells [2]; CpG 1 μg/ml, 5 days): ~3.5 fold | percentage of CD38-expressing naive B cells (CD38highCD27low) (peripheral blood B cells [2]; CpG 1 μg/ml, 5 days): 30.2±5.5% | percentage of CD38highCD27high B cells (plasma cells) (peripheral blood B cells [2]; CpG 1 μg/ml, 5 days): 10.3±1.9%

CCCCCC=CC=C1C(=O)C=C[C@@H]1CC=CCCCC(=O)O [15d-PGJ2, 15-deoxy-Δ^12,14 Prostaglandin J2]
BLIMP-1 induction over CpG-treated cells (densitometry) [3]: ~9 fold | cell division compared to vehicle control (purified human B cells): increased cell division | CD38highCD27high cells, fold over vehicle (peripheral blood B cells [2]; CpG 1 μg/ml, 5 days): ~2 fold | percentage of CD38highCD27high B cells (plasma cells) (peripheral blood B cells [2]; CpG 1 μg/ml, 5 days): 12.5±1.4% | percentage of B cells which express Cox-2 [4]: 43% | luciferase activity (PPRE reporter) (PPARγ; CpG-activated B cells, 24 h treatment, Rosiglitazone 0.5 μM, 15d-PGJ2 0.2 μM): increased luciferase activity | cell viability (human B cells): did not adversely affect cell viability

CC1=C(/C=C/C(C)=C/C=C/C(C)=C/C(=O)O)C(C)(C)CCC1 [ATRA, all-trans-retinoic acid]
CD38 expression (peripheral blood B cells [5]): induces CD38 expression | antibody production (peripheral blood B cells [5]): increases antibody production

O=C(Nc1ccccc1)c1cc([N+](=O)[O-])ccc1Cl [GW9662]
expression of BLIMP-1 compared to CpG alone ([3]; CpG and GW9662 500 nM): decrease | increase in BLIMP-1 by Rosiglitazone and 15d-PGJ2 ([3]; CpG-activated B cells, with GW9662 500 nM): dramatically attenuated | effects of PPARγ ligands on IgG production ([1]; with GW9662 500 nM, CpG, 6 days): abolished | PPARγ ligand-induced CD38 expression in memory B cells (peripheral blood B cells [2]; with GW9662 500 nM, CpG): attenuated

CN(CCOc1ccc(CC2SC(=O)NC2=O)cc1)c1ccccn1 (centres unmarked) [Rosiglitazone, 5-[4-[2-[N-methyl-N-(2-pyridyl)amino]ethoxy]benzyl]thiazolidine-2,4-dione]
BLIMP-1 induction over CpG-treated cells (densitometry) [3]: ~6 fold | cell division compared to vehicle control (purified human B cells): increased cell division | percentage of CD38highCD27high B cells (plasma cells) (peripheral blood B cells [2]; CpG 1 μg/ml, 5 days): 10.7±1.6% | percentage of B cells which express Cox-2 [4]: 36% | cell viability (human B cells): did not adversely affect cell viability

CS(=O)(=O)c1ccc(-n2nc(C(F)(F)F)cc2-c2ccc(F)cc2)cc1 [SC-58125]
IgG production of CpG-stimulated B cells [1, 8]: significantly reduced | IgM production of CpG-stimulated B cells [1, 8]: significantly reduced | increased antibody production upon PPARγ ligand treatment ([1]; addition of SC-58125 10 μM, CpG, 6 days): significantly reduced

CpG: CpG oligodeoxynucleotides 2395 5′-TCGTCGTTTTCGGCGCGCGCCG-3′ (SEQ ID NO: 1), a TLR-9 ligand, mitogen (chemistry not given here)
BLIMP-1 protein levels compared to untreated or freshly isolated B cells ([3]; CpG treatment): significantly upregulated | IgG production ([1]; CpG 1 μg/ml alone, 5 days): significantly induced | IgM production ([1]; CpG 1 μg/ml alone, 5 days): significantly induced | PPARγ protein levels increase compared to untreated B cells (densitometry of Western blot) [6]: ≤ 14.3 fold | percentage of CD38-expressing naive B cells (CD38highCD27low) (peripheral blood B cells [2]; CpG 1 μg/ml, 5 days): 9.1±0.6% | percentage of CD38highCD27high B cells (plasma cells) (peripheral blood B cells [2]; CpG 1 μg/ml, 5 days): 7.0±1.7% | percentage of B cells which express Cox-2 [4]: 27% | levels of Cox-2 expression (mean fluorescence intensity) ([4]; FIG. 6B): increased the levels of Cox-2 expression | PPARγ activity (PPRE reporter) (PPARγ; CpG-activated B cells with no exogenous PPARγ ligand): did not induce PPARγ activity | intracellular PPARγ levels compared to untreated B cells [7]: increased
